Consider 47 compounds from ChEMBL document CHEMBL3603753, “Carbamoyl Triazoles, Known Serine Protease Inhibitors, Are a Potent New Class of Antimalarials” (J Med Chem, 2015).

pIC50: −log10 of the molar value. Values after ≈ are worked out from the molar mass of the structure shown. Active and inactive are the calls of the source. The calls are words filed in the database; no cut-off is given here. Bounds are passed on as bounds.

Data set [1] has as its system Plasmodium falciparum. In words: Antimalarial activity against Plasmodium falciparum 3D7 infected in erythrocytes incubated for 48 hrs by [3H]hypoxanthine incorporation assay. The format is functional, organism-based.
The test system of data set [2] is Plasmodium falciparum. Put plainly: Antimalarial activity against Plasmodium falciparum 3D7 infected in erythrocytes incubated for 72 hrs by [3H]hypoxanthine incorporation assay. The format is functional, organism-based.
In a further data set the test system is Liver microsome. In words: Intrinsic clearance in human liver microsomes. The format is ADME. On the technique in general: Liver microsomes are a subcellular fraction often used to study metabolism.
A short description of data set [3]: Half life in human liver microsomes. It counts as ADME.
The nature of data set [4]: Half life in mouse liver microsomes. The format is ADME.
The test system of another data set is HepG2. In words: Cytotoxicity against human HepG2 cells. It counts as cell-based.
A short description of data set [5]: Kinetic solubility of the compound by chemoluminescent nitrogen detection kinetic solubility assay. It counts as physicochemical. The following applies: read-out: Kinetic_solubility.
A further data set addresses Acetylcholinesterase (Homo sapiens, UniProt P22303). In words: Inhibition of human AChE.
For data set [6], the system named is Plasmodium falciparum. Put plainly: Antimalarial activity against Plasmodium falciparum infected in erythrocytes assessed as young trophozoites level at 10 times antimalarial IC50 level incubated for 24 and 48 hrs by Giemsa staining based microsocpy.
The target of data set [7] is T1, Subtilisin-like protease 1 (Plasmodium falciparum, UniProt O61142).
T1 sequence (O61142 whole entry): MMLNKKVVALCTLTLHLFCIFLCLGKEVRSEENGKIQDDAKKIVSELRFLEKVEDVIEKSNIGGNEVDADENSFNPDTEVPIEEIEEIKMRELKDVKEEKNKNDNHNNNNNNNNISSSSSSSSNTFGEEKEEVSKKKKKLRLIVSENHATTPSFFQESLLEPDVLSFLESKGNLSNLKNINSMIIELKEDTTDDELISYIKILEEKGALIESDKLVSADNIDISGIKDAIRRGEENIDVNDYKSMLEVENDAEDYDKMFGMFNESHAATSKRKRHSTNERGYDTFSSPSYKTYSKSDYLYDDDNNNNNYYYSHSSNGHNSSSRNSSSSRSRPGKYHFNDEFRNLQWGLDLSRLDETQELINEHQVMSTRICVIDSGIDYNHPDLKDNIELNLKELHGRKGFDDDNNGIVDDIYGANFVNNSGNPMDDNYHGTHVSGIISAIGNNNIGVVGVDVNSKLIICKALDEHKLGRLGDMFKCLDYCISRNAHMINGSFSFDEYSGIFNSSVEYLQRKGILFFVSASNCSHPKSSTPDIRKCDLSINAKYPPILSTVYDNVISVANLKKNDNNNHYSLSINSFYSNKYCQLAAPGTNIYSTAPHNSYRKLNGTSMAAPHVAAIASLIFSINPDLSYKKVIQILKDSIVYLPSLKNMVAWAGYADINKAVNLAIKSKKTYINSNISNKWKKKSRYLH
Put plainly: Inhibition of Plasmodium falciparum recombinant SUB1 using SERA4st1F-6R12 substrate incubated for 55 mins by fluorescence spectrophotometry.

Acetylcholinesterase, sequence (P22303 whole entry): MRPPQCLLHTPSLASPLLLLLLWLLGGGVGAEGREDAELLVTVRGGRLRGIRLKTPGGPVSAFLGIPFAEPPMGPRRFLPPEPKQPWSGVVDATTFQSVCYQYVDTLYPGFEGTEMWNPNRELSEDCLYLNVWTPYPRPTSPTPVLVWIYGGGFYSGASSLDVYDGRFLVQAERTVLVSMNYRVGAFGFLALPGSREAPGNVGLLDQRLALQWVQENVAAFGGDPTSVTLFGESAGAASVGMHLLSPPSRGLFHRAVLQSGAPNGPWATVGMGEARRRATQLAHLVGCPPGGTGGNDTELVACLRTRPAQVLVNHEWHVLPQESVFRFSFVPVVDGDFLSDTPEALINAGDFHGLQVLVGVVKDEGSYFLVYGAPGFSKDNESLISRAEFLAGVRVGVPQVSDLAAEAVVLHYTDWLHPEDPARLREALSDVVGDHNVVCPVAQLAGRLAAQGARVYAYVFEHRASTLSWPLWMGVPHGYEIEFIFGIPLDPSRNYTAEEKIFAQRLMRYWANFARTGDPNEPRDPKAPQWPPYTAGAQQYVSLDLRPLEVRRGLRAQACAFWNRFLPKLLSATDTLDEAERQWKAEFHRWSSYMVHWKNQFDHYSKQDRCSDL

For orientation: pIC50 means the negative decadic logarithm of the IC50, by convention in mol/L. Higher therefore signals a small IC50. Compound `CC(C)N(C)C(=O)n1cnc(S(=O)(=O)c2ccc(Cl)cc2)n1` had a pIC50 with Plasmodium falciparum [1] of 7.72.
On the same count and under the same terms, the figure for `Cc1nc(S(=O)(=O)[C@@H]2C[C@H]3CC[C@@H]2C3)nn1C(=O)N(C)C(C)C` is under 5.40; for `CCN(C)C(=O)n1cnc(S(=O)(=O)c2c(C)cc(C)cc2C)n1` it is 6.79; for `CCN(CC)C(=O)n1cnc(S(=O)(=O)[C@@H]2C[C@H]3CC[C@@H]2C3)n1` it is 6.23.
Usually half-life stands for the time in which the quantity being followed falls by half. Read a high half-life as slow loss. Turning to `CN(Cc1ccccc1)C(=O)n1cnc(S(=O)(=O)[C@@H]2C[C@H]3CC[C@@H]2C3)n1`, the results for the pIC50 in the data set with Plasmodium falciparum [2] and in the data set with Plasmodium falciparum [1] were 6.42 and 6.59, respectively. Further, the Intrinsic clearance with Liver microsome was 1.5 mL/min/g. Moreover, the half-life was over 30 min in [3] and 19.4 min in data set [4].
For the compound `CN(Cc1ccc(S(C)(=O)=O)cc1)C(=O)n1cnc(S(=O)(=O)[C@@H]2C[C@H]3CC[C@@H]2C3)n1`, the pIC50 with Plasmodium falciparum [1] was 6.54.
On the same count and under the same terms, to `COc1ccc(CN(C(=O)n2cnc(S(=O)(=O)[C@@H]3C[C@H]4CC[C@@H]3C4)n2)C(C)C)cc1` belongs 6.08; to `O=C(N1CCCCC1)n1cnc(S(=O)(=O)[C@@H]2C[C@H]3CC[C@@H]2C3)n1`, 6.20; to `COc1ccc(CN(C)C(=O)n2cnc(S(=O)(=O)[C@@H]3C[C@H]4CC[C@@H]3C4)n2)c(OC)c1`, 7.52.
Still for that read-out and setting: to `CCN(C)C(=O)n1cnc(S(=O)(=O)[C@@H]2C[C@H]3CC[C@@H]2C3)n1` belongs 7.03; to `CCN(CC)C(=O)n1cnc(S[C@@H]2C[C@H]3CC[C@@H]2C3)n1`, 5.65.
As to `CN(Cc1ccc(C(C)(C)C)cc1)C(=O)n1cnc(S(=O)(=O)[C@@H]2C[C@H]3CC[C@@H]2C3)n1`, the pIC50 with HepG2 is 4.12; in the data set with Plasmodium falciparum [1] it was 7.80. Besides, the solubility kinetic in data set [5] turned out to be 28 µM (≈ 12.1 µg/mL). Also, the half-life in data set [4] was determined as 9 min.
Turning to `O=C(N1CCCC1)n1cnc(S(=O)(=O)[C@@H]2C[C@H]3CC[C@@H]2C3)n1`, the figures for the pIC50 in the data set with Plasmodium falciparum [2] and with Plasmodium falciparum [1] were 7.43 and 7.08, respectively. Also, the Intrinsic clearance with Liver microsome was determined as 1 mL/min/g. Further, the half-life in data set [3] was over 30 min; in data set [4], under 5 min.
For the compound `CN(Cc1cccc(Cl)c1)C(=O)n1cnc(S(=O)(=O)[C@@H]2C[C@H]3CC[C@@H]2C3)n1`, the negative logarithm of the IC50 (pIC50) with Plasmodium falciparum [1] is 6.51.
In the data set with Plasmodium falciparum [1], `CN(C)C(=O)n1cnc(S[C@@H]2C[C@H]3CC[C@@H]2C3)n1` had a negative-log IC50 (pIC50) of 6.85.
In turn, `CSc1nc(-c2ccc(OC(F)(F)F)cc2)nn1C(=O)N(C)c1ccccc1` had a pIC50 on Acetylcholinesterase of under 1.30.
For `CC(C)N(C)C(=O)n1cnc(S(=O)(=O)C2CCCCC2)n1`, in the data set with Plasmodium falciparum [1], the pIC50 was 7.55.
`O=C(N1CCCC1)n1cnc(S[C@@H]2C[C@H]3CC[C@@H]2C3)n1` displayed an Intrinsic clearance with Liver microsome of 1.5 mL/min/g. For the same compound, the figures for the half-life in [3] and in data set [4] were over 30 min and under 5 min, respectively. The compound also showed a pIC50 in the data set with Plasmodium falciparum [1] of 6.75.
Compound `CSc1nc(-c2ccc(OC(F)(F)F)cc2)nn1C(=O)N(C)C` showed a pIC50 on Acetylcholinesterase of 3.70.
As to `CCCN(C)C(=O)n1cnc(S(=O)(=O)[C@@H]2C[C@H]3CC[C@@H]2C3)n1`, the pIC50 in the data set on Plasmodium falciparum [1] was 6.84.
Still for that read-out and setting: the figure for `CC(C)N(C)C(=O)n1cnc(S(=O)(=O)C2C3CC4CC(C3)CC2C4)n1` (configuration not stated) is 8.10; for `CCN(C)C(=O)n1cnc(Sc2c(C)cc(C)cc2C)n1` it is 5.72; for `CN(Cc1ccc(Cl)cc1)C(=O)n1cnc(S(=O)(=O)[C@@H]2C[C@H]3CC[C@@H]2C3)n1` it is 6.22.
Same read-out and setting: the figure for `CN(Cc1cccc(C(F)(F)F)c1)C(=O)n1cnc(S(=O)(=O)[C@@H]2C[C@H]3CC[C@@H]2C3)n1` is 5.73.
The same measure, in the same setting: to `CN(Cc1ccccc1Cl)C(=O)n1cnc(S(=O)(=O)[C@@H]2C[C@H]3CC[C@@H]2C3)n1` belongs 6.14; to `COc1cccc(CN(C)C(=O)n2cnc(S(=O)(=O)[C@@H]3C[C@H]4CC[C@@H]3C4)n2)c1`, 7.44.
In the case of `CN(Cc1ccc(F)cc1)C(=O)n1cnc(S(=O)(=O)[C@@H]2C[C@H]3CC[C@@H]2C3)n1`, in the data set on Plasmodium falciparum [1], the pIC50 was 6.71.
Still for that read-out and setting: to `CN(Cc1ccccc1F)C(=O)n1cnc(S(=O)(=O)[C@@H]2C[C@H]3CC[C@@H]2C3)n1` belongs 6.74; to `CN(Cc1ccccc1C(F)(F)F)C(=O)n1cnc(S(=O)(=O)[C@@H]2C[C@H]3CC[C@@H]2C3)n1`, 5.90.
Still for that read-out and setting: to `CN(Cc1cccnc1)C(=O)n1cnc(S(=O)(=O)[C@@H]2C[C@H]3CC[C@@H]2C3)n1` belongs 7.07.
Consider `O=C1C(O)=C([C@H]2CC[C@H](c3ccc(Cl)cc3)CC2)C(=O)c2ccccc21` [ATOVAQUONE], for which the negative logarithm of the IC50 (pIC50) is 9.52 with Plasmodium falciparum [2] and 9.00 with Plasmodium falciparum [1]. The result in the data set on Plasmodium falciparum [6] was Active.
On to `CC(C)N(C(=O)n1cnc(S[C@@H]2C[C@H]3CC[C@@H]2C3)n1)C(C)C`, for which the IC50 entry in data set [7] is recorded as “Not Active”. Also, the figures for the negative logarithm of the IC50 (pIC50) in the data set with Plasmodium falciparum [2] and in the data set with Plasmodium falciparum [1] were 6.27 and 5.85, respectively. In the data set on Liver microsome, this compound displayed an Intrinsic clearance of 3.1 mL/min/g. Also, the half-life is 22.3 min in data set [3] and under 5 min in data set [4].
For the compound `O=C(N1CCCC1)n1cnc(S(=O)(=O)Cc2ccccc2)n1`, the IC50 result in data set [7] was “Not Active”. This compound gave a negative logarithm of the IC50 (pIC50) in the data set on Plasmodium falciparum [1] of 6.38.
In the data set with Plasmodium falciparum [1], `O=C(N1CCc2ccccc2C1)n1cnc(S(=O)(=O)[C@@H]2C[C@H]3CC[C@@H]2C3)n1` gave a pIC50 of under 5.30.
`CN(C(=O)n1cnc(S(=O)(=O)[C@@H]2C[C@H]3CC[C@@H]2C3)n1)C(C)(C)C` had a negative-log IC50 (pIC50) with Plasmodium falciparum [1] of under 5.30.
Still for that read-out and setting: to `O=C(N1CCCC1)n1cnc(SCc2ccccc2)n1` belongs 5.84; to `CN(C)C(=O)n1cnc(S(=O)(=O)[C@@H]2C[C@H]3CC[C@@H]2C3)n1`, 7.33.
Same read-out and setting: to `CN(Cc1cccc(F)c1)C(=O)n1cnc(S(=O)(=O)[C@@H]2C[C@H]3CC[C@@H]2C3)n1` belongs 6.43; to `CN(Cc1ccc(C(F)(F)F)cc1)C(=O)n1cnc(S(=O)(=O)[C@@H]2C[C@H]3CC[C@@H]2C3)n1`, 6.26.
Same read-out and setting: the figure for `COc1ccc(CN(C(=O)n2cnc(S(=O)(=O)[C@@H]3C[C@H]4CC[C@@H]3C4)n2)C2CC2)cc1` is 5.99.
Regarding `CC(C)N(C(=O)n1cnc(S(=O)(=O)[C@@H]2C[C@H]3CC[C@@H]2C3)n1)C(C)C`, the pIC50 in the data set with Plasmodium falciparum [2] and in the data set on Plasmodium falciparum [1] was under 5.30 throughout.
In turn, `CN(Cc1cccc(C#N)c1)C(=O)n1cnc(S(=O)(=O)[C@@H]2C[C@H]3CC[C@@H]2C3)n1` showed a pIC50 in the data set with Plasmodium falciparum [1] of 5.46.
As to `CC(C)N(C)C(=O)n1cnc(S[C@@H]2C[C@H]3CC[C@@H]2C3)n1`, the IC50 entry in data set [7] is given as “Not Active”. This compound had a negative-log IC50 (pIC50) with Plasmodium falciparum [1] of 7.15.
`CN(C(=O)n1cnc(S(=O)(=O)[C@@H]2C[C@H]3CC[C@@H]2C3)n1)c1ccccc1`: the negative-log IC50 (pIC50) in the data set on Plasmodium falciparum [2] and with Plasmodium falciparum [1] was 5.57 in each case.
Turning to `CN(C)C(=O)n1cnc(S(=O)(=O)c2ccc(Cl)cc2)n1`, in the data set with Plasmodium falciparum [1], the pIC50 is 6.24.
In the data set on Plasmodium falciparum [1], `CC(=O)c1ccc(CN(C)C(=O)n2cnc(S(=O)(=O)[C@@H]3C[C@H]4CC[C@@H]3C4)n2)cc1` showed a negative-log IC50 (pIC50) of 7.30.
On the same count and under the same terms, to `CN(C(=O)n1cnc(S[C@@H]2C[C@H]3CC[C@@H]2C3)n1)c1ccccc1` belongs under 5.30.
